Measurements taken from article PMC10518255, “A first-in-class pan-lysyl oxidase inhibitor impairs stromal remodeling and enhances gemcitabine response and survival in pancreatic cancer” (Nature Cancer, 2023).

Key:
DAO = biological target: T1, DAO (Homo sapiens, UniProt P19801); experiment: Substrate turnover by H2O2 release, amplex red coupled fluorometric activity assay (Extended Data Fig. 3a); format: biochemical
T1 sequence (P19801 20-751): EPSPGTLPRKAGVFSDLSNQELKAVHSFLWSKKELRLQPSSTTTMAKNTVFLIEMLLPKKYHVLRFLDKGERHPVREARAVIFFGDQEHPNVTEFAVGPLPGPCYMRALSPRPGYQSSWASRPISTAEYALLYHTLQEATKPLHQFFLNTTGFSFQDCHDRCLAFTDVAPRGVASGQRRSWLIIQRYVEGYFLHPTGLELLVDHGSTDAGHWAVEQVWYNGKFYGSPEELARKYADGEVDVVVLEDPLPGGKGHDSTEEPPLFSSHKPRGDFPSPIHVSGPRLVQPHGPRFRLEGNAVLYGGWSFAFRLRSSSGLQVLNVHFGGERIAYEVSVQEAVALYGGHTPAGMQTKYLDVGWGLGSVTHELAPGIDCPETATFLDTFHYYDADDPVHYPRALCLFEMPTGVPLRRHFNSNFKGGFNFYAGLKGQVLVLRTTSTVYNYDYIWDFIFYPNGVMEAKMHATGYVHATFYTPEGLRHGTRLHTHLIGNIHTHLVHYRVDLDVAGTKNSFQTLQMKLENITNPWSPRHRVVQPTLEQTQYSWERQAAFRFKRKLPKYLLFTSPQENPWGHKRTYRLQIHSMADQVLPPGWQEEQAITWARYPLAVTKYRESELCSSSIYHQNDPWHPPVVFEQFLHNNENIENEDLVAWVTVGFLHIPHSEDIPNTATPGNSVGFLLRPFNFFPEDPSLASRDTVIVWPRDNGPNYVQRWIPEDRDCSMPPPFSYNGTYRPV
Source text: (§1) Specifically, BAPN is oxidized by diamine oxidase (DAO) and semicarbazide-sensitive amine oxidase (SSAO)/vascular adhesion protein 1 (VAP-1) in the vasculature (Extended Data Fig. 3a), which releases hydrogen […] (H2O2) and aldehyde in humans leading to toxicity.
(§2) Data presented as mean values +/− SD. f. […] Data presented as mean values +/− SD. […] Data presented as mean values +/− SD. […] Data presented as mean values +/− SD. Ordinary one-way ANOVA for multiple comparison test performed. Source data

SSAO = biological target: T2, SSAO (Homo sapiens, UniProt Q16853); experiment: as above; format: biochemical
T2 sequence (Q16853 1-763): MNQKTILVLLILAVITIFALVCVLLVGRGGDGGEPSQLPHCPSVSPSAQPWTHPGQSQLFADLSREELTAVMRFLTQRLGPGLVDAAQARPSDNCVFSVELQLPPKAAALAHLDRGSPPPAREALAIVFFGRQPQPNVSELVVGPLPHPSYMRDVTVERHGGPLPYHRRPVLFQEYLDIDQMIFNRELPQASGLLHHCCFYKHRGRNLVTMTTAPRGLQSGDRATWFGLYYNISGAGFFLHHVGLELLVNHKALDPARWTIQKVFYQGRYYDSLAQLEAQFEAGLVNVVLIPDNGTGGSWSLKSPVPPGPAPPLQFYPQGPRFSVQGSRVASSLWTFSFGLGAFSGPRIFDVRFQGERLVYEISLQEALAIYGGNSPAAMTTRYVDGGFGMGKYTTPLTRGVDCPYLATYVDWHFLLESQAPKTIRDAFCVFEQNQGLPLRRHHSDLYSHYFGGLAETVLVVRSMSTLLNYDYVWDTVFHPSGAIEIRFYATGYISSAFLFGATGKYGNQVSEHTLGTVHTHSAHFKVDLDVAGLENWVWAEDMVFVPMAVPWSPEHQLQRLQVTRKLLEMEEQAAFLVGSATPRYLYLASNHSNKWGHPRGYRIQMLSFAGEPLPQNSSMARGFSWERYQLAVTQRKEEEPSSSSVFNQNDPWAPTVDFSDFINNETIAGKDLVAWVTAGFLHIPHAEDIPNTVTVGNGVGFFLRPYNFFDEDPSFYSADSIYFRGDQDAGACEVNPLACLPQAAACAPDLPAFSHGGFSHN
Source text: as §1, §2

[1] = system: KPC CAF remodeled 3D collagen matrices; experiment: Matrix stiffness by unconfined compression testing of organotypic matrices; format: cell-based, mouse; details: PXS-5120 100 nM, day 12
Description: Fig. 3 PXS-5505 inhibition of CAF remodeling in vitro. a, Quantitative PCR with reverse transcription (qRT–PCR) showing in vitro comparison of KPC CAF relative expression of lysyl oxidase family members compared to KPC CCs from the same model (n = 3 biologically independent samples). Comparisons were determined by 2^–∆∆Ct approach. b, Representative images of 3D organotypic matrix contraction assay at days 2, 6 and 12 in the absence (gray) or presence (pink) of PXS-5505 (30 µM). Scale bars, 5 mm. Comparison of measured area of matrices between control and PXS-5505 treatment groups over time (n = 3 technical samples examined over three biologically independent samples). Data are mean ± s.d. c, Concentration of immature divalent DHLNL and mature trivalent Pyr collagen crosslinks determined by LC–MS from control and PXS-5505-treated organotypic matrices at day 12 (n = 3 technical samples examined over two biologically independent samples). Data are mean ± s.d. […] Data are presented as mean ± s.d. […] Comparison of number of CCs invaded per field of view (FOV) as determined by H&E and PanCK staining (nine images taken from three technical samples from each of three biologically independent contracted matrices), normalized to control. Data are mean ± s.d. Scale bars, 100 μm. […] Source data […]

KPC CCs = experiment: Cancer cell invasion into CAF-remodeled 3D organotypic matrices; format: cell-based, mouse; details: PXS-5120 100 nM
Description: Fig. 3 PXS-5505 inhibition of CAF remodeling in vitro. a, Quantitative PCR with reverse transcription (qRT–PCR) showing in vitro comparison of KPC CAF relative expression of lysyl oxidase family members compared to KPC CCs from the same model (n = 3 biologically independent samples). Comparisons were determined by 2^–∆∆Ct approach. b, Representative images of 3D organotypic matrix contraction assay at days 2, 6 and 12 in the absence (gray) or presence (pink) of PXS-5505 (30 µM). Scale bars, 5 mm. Comparison of measured area of matrices between control and PXS-5505 treatment groups over time (n = 3 technical samples examined over three biologically independent samples). Data are mean ± s.d. c, Concentration of immature divalent DHLNL and mature trivalent Pyr collagen crosslinks determined by LC–MS from control and PXS-5505-treated organotypic matrices at day 12 (n = 3 technical samples examined over two biologically independent samples). Data are mean ± s.d. […] Data are presented as mean ± s.d. […] Comparison of number of CCs invaded per field of view (FOV) as determined by H&E and PanCK staining (nine images taken from three technical samples from each of three biologically independent contracted matrices), normalized to control. Data are mean ± s.d. Scale bars, 100 μm. […] Source data
Following remodeling, 4 × 10^4 KPC CCs were seeded on top of the remodeled matrix in DMEM supplemented with 10% FBS and 1% penicillin–streptomycin and allowed to grow to confluence for 4 days, after which matrices were transferred to an air–liquid interface and CCs allowed to invade into the organotypic matrices for 12 days (Extended Data Fig. 4f). PXS-5505 (30 μM) or PXS-5120 (100 nM) was added to medium at 48-h intervals for the duration. At the end point, matrices were fixed in 10% formalin and processed for histological analysis by H&E and panCK staining. The invasive index was measured in three representative areas per matrix and the number of invaded cells per mm^2 was calculated. No statistical methods were used to predetermine sample sizes but our sample sizes are similar to those reported in previous publications[36],[39].
Extended Data Fig. 4 PXS-5505 inhibits collagen cross-linking by PDAC CAFs in vitro resulting in decreased cancer cell invasion. a. Schematic of organotypic matrix remodeling assay whereby CAFs are embedded into a 3D collagen matrix and growth media supplemented with or without PXS-5505 to inhibit lysyl oxidase family activity b. Chemical structures of lysyl oxidase family catalyzed hydroxyallysine or allysine residues and the subsequent divalent and trivalent bonds that are formed that can be quantified by mass spectrometry. c. Representative images of 3D organotypic matrix contraction by human pancreatic cancer CAFs at days 2, 6 and 12 in the absence (gray) and presence (pink) of PXS-5505 (30 µM). Scale bars = 5 mm. […] Data presented as mean values +/− SD. d. […] Data presented as mean values +/− SD. Relative fold expression of LOXL family members compared to LOX were determined by 2^–∆∆Ct approach. f. […] Comparison of measured area of matrices between control, PXS-5120 and PXS-5505 treatment groups (n = 3) over time. i. […] Representative images of invasion of KPC cancer cells into a contracted organotypic matrix as determined by H&E staining. […]

[2] = listed as value 30 (unit not given)
[3] = listed as value 60 (unit not given)
[4] = listed as value 300 (unit not given)

| SMILES | processing as a substrate by DAO (DAO) | Turnover by DAO as measured by H2O2 release, mean (DAO; [2]) | Turnover by DAO as measured by H2O2 release, mean (DAO; [3]) | Turnover by DAO as measured by H2O2 release, mean (DAO; [4]) | processing as a substrate by SSAO/VAP-1 (SSAO) | Turnover by SSAO as measured by H2O2 release, mean (SSAO; [2]) | Turnover by SSAO as measured by H2O2 release, mean (SSAO; [3]) | Turnover by SSAO as measured by H2O2 release, mean (SSAO; [4]) | stiffening of 3D collagen matrices [1] | CC invasion (KPC CCs) |
| --- | --- | --- | --- | --- | --- | --- | --- | --- | --- | --- |
| N#CCCN [BAPN, β-aminopropionitrile, reference compound] | oxidized | 3.75 | 4.64 | 5.888 | oxidized | 1.3236 | 1.5791 | 2.4689 |  |  |
| Cc1c(-c2cccc(S(=O)(=O)N(C)C)c2)c2cc(C(=O)O)ccc2n1C/C(F)=C/CN [PXS-5120, reference compound] |  |  |  |  |  |  |  |  | does not significantly block stiffening | does not lead to decreased CC invasion |
